Values quoted from earlier work as cited in patent publication US20110301189A1, “STABLE PHARMACEUTICAL COMPOSITIONS OF RAPAMYCIN ESTERS” (FRESENIUS KABI ONCOLOGY LTD., priority 2010, published 2011).

Settings: aqueous solvents

Structure (SMILES): COC1CC2CCC(C)C(O)(O2)C(=O)C(=O)N2CCCCC2C(=O)OC(C(C)CC2CCC(OC(=O)C(C)(CO)CO)C(OC)C2)CC(=O)C(C)/C=C(\C)C(O)C(OC)C(=O)C(C)CC(C)/C=C/C=C/C=C/1C (stereo not shown) [Rapamycin 42-ester with 3-hydroxy-2-(hydroxymethyl)-2-methylpropionic acid]
- aqueous solubility: less than 1 μg/ml
